Consider eleven compounds from ChEMBL document CHEMBL1201862, “PubChem BioAssay data set” (2004).

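Where inhibition never reached the appropriate level, the endpoint shown equals the highest concentration tested. Otherwise, values were interpolated linearly from a five-concentration, 48-hour dose response in 96-well plates. The concentration for 50% growth inhibition is given as GI50.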 Active and inactive are the calls of the source. Rule as the data show it: active = GI50 up to about 1.1 µM and inactive = higher.

Test systems include MOLT-4; MCF7; CCRF-CEM; K562; CAKI-1; SK-MEL-28; SF-268; SNB-75; NCI-H23; 786-0; NCI-H522; HCT-116; OVCAR-4; HL-60; OVCAR-8; OVCAR-5; SF-539; MDA-MB-435; A498; BT-549.
Common to all, as to assay: NCI tumour cell line growth inhibition, 48 h

`C/C=C/OC1C(C2COC(C)(C)O2)OC2OC(C)(C)OC21` (configuration not stated): the GI50 with MOLT-4, with MCF7, with CCRF-CEM, with K562, in the experiment with CAKI-1 and with SK-MEL-28 was > 100 µM (inactive) throughout. For the same compound, the GI50 in the experiment on SF-268, in the experiment on SNB-75, in the experiment with NCI-H23, in the experiment on 786-0, with NCI-H522 and in the experiment on HCT-116 was > 100 µM (inactive) throughout. The GI50 in the experiment with OVCAR-4, with HL-60, with OVCAR-8, in the experiment on OVCAR-5, with SF-539 and in the experiment with MDA-MB-435 was > 100 µM (inactive) each time. Moreover, in the experiment with A498, the GI50 was > 100 µM (inactive).

For `Cc1ccc(C(=O)N(C(C)C)C(C)C)cc1/N=N/N(C)C`, the GI50 with MOLT-4 was 45.3 µM (inactive); in the experiment on MCF7 it was > 100 µM (inactive); with CCRF-CEM it was > 10 µM (inactive); in the experiment on BT-549, > 100 µM (inactive); with K562 it was 38.8 µM (inactive); in the experiment on CAKI-1, > 100 µM (inactive). The GI50 with SK-MEL-28 is 41.1 µM (inactive); in the experiment on SF-268, > 51.6 µM (inactive); with NCI-H23, 41 µM (inactive); with 786-0, > 100 µM (inactive); in the experiment on NCI-H522 it was 18.2 µM (inactive); with HCT-116 it was > 75.9 µM (inactive). For the same compound, the GI50 with OVCAR-4 is > 100 µM (inactive); with HL-60, 29.7 µM (inactive); in the experiment on OVCAR-8, > 100 µM (inactive); in the experiment on OVCAR-5 it was > 100 µM (inactive); with SF-539, > 95.7 µM (inactive); with MDA-MB-435, > 100 µM (inactive).

With `CC1(C)CC2(C)CC1CC2O` (configuration not stated), the GI50 with MOLT-4, with MCF7, in the experiment with CCRF-CEM, in the experiment with BT-549, in the experiment on K562 and with CAKI-1 was > 100 µM (inactive) throughout. For the same compound, the GI50 with SK-MEL-28, with SF-268, in the experiment with SNB-75, with NCI-H23, in the experiment with 786-0 and in the experiment with HCT-116 was > 100 µM (inactive) throughout. Besides, the GI50 in the experiment on OVCAR-4, with HL-60, in the experiment on OVCAR-8, in the experiment with OVCAR-5, with SF-539 and in the experiment with MDA-MB-435 was > 100 µM (inactive) each time.

Consider `Cc1ccc(S(=O)(=O)NNC(=O)Nc2cccc(C(F)(F)F)c2)cc1`, for which the GI50 in the experiment on MOLT-4 is > 100 µM (inactive); with MCF7 it was 97.1 µM (inactive); in the experiment on CCRF-CEM, 96.2 µM (inactive); with K562 it was 67.6 µM (inactive); in the experiment with CAKI-1, > 100 µM (inactive); in the experiment with SK-MEL-28, > 100 µM (inactive). Besides, the GI50 in the experiment on SF-268 was > 100 µM (inactive); in the experiment with SNB-75 it was 0.0284 µM (active); in the experiment with NCI-H23, > 100 µM (inactive); with 786-0, > 100 µM (inactive); with NCI-H522 it was 38.4 µM (inactive); in the experiment on HCT-116 it was 97.1 µM (inactive). Further, the GI50 in the experiment with OVCAR-4 is 0.0653 µM (active); in the experiment with HL-60, > 100 µM (inactive); with OVCAR-8 it was > 100 µM (inactive); in the experiment with OVCAR-5, > 100 µM (inactive); in the experiment with SF-539 it was > 100 µM (inactive); in the experiment on MDA-MB-435, > 100 µM (inactive). For the same compound, in the experiment on A498, the GI50 was > 100 µM (inactive).

`O=C1/C(=N/c2ccc(Nc3ccccc3)cc2)Oc2ccccc21`: the GI50 was 2.13 µM (inactive) in the experiment with MOLT-4; 2.55 µM (inactive) in the experiment with MCF7; 1.86 µM (inactive) with CCRF-CEM; 2.93 µM (inactive) in the experiment on K562; 1.85 µM (inactive) in the experiment with CAKI-1; 4.19 µM (inactive) in the experiment with SK-MEL-28. The GI50 was 2.88 µM (inactive) in the experiment on SF-268; 2.15 µM (inactive) in the experiment on SNB-75; 2.04 µM (inactive) with NCI-H23; 1.88 µM (inactive) in the experiment with 786-0; 1.83 µM (inactive) in the experiment with NCI-H522; 1.67 µM (inactive) in the experiment with HCT-116. In addition, the GI50 with OVCAR-4 is 2.33 µM (inactive); with HL-60, 1.99 µM (inactive); in the experiment on OVCAR-8 it was 2.64 µM (inactive); in the experiment with OVCAR-5, 2.54 µM (inactive); with SF-539, 3.27 µM (inactive); with MDA-MB-435, 1.82 µM (inactive). Moreover, the GI50 in the experiment with A498 was 5.69 µM (inactive).

In the case of `CC1(C)C(OC(=O)c2ccccc2)C[C@]23CCC[C@](C)(C[C@@H](O)C12)C3` (some centres not stated), the GI50 in the experiment with MOLT-4 was 10.5 µM (inactive); in the experiment on MCF7, 16.4 µM (inactive); in the experiment on CCRF-CEM, 11.7 µM (inactive); in the experiment on BT-549, 15.6 µM (inactive); in the experiment with K562, 13.5 µM (inactive); in the experiment on CAKI-1, 19.9 µM (inactive). Further, the GI50 with SK-MEL-28 was 15.8 µM (inactive); in the experiment on SF-268, 24.1 µM (inactive); in the experiment with SNB-75, 18.9 µM (inactive); in the experiment on NCI-H23, 16.9 µM (inactive); with 786-0 it was 19.6 µM (inactive); with NCI-H522, 15.5 µM (inactive). Further, the GI50 was 13.9 µM (inactive) in the experiment with HCT-116; 23.1 µM (inactive) with OVCAR-4; 31.5 µM (inactive) with HL-60; 16.7 µM (inactive) in the experiment with OVCAR-8; 15.3 µM (inactive) with OVCAR-5; 18 µM (inactive) in the experiment on MDA-MB-435.

On to `C=CC/N=C(\S)Nc1sc2c(c1C(=O)OCC)CC(C)CC2` (configuration not stated), for which the GI50 was 28.8 µM (inactive) in the experiment with MOLT-4; 20.2 µM (inactive) in the experiment with MCF7; 35.6 µM (inactive) with BT-549; 33 µM (inactive) in the experiment on K562; 36.1 µM (inactive) with CAKI-1; 33.1 µM (inactive) with SK-MEL-28. In addition, the GI50 is 35 µM (inactive) in the experiment on SF-268; 24.3 µM (inactive) in the experiment on SNB-75; 32.7 µM (inactive) with NCI-H23; 33.9 µM (inactive) in the experiment on 786-0; 20.6 µM (inactive) with NCI-H522; 24.8 µM (inactive) in the experiment on HCT-116. Also, the GI50 with OVCAR-4 is 35.2 µM (inactive); in the experiment with HL-60 it was 0.849 µM (active); with OVCAR-8, 36.7 µM (inactive); with OVCAR-5, 30.3 µM (inactive); in the experiment on MDA-MB-435 it was 32 µM (inactive).

On to `CC1CC(C)C(O)C(C2CC(CC(=O)NC3CCCCC3)CC(=O)O2)C1` (configuration not stated), for which the GI50 with MOLT-4, in the experiment with MCF7, with CCRF-CEM, in the experiment on K562, in the experiment on CAKI-1 and in the experiment with SK-MEL-28 was > 100 µM (inactive) each time. In addition, the GI50 in the experiment on SF-268, in the experiment on SNB-75, in the experiment on NCI-H23, in the experiment with 786-0, in the experiment on NCI-H522 and in the experiment on HCT-116 was > 100 µM (inactive) throughout. Also, the GI50 in the experiment with OVCAR-4, in the experiment with HL-60, in the experiment with OVCAR-8, in the experiment with OVCAR-5, with SF-539 and in the experiment with MDA-MB-435 was > 100 µM (inactive) in each case. Besides, the GI50 with A498 was > 100 µM (inactive).

Consider `O=c1o[nH]/c(=N/c2ccccc2)n1-c1ccccc1`, for which the GI50 in the experiment on MOLT-4, in the experiment on MCF7, with CCRF-CEM, with BT-549, with K562 and in the experiment with CAKI-1 was > 100 µM (inactive) in each case. The GI50 in the experiment with SK-MEL-28, in the experiment with SNB-75, with NCI-H23, in the experiment with 786-0, with HCT-116 and in the experiment on OVCAR-4 was > 100 µM (inactive) in each case. Also, the GI50 with HL-60, in the experiment on OVCAR-8, in the experiment on OVCAR-5, with SF-539 and with A498 was > 100 µM (inactive) each time.

Turning to `C/C(=N/NC(=S)N(C)C)c1ccccc1O`, the GI50 is 20.5 µM (inactive) in the experiment with MOLT-4; 2.88 µM (inactive) with CCRF-CEM; 10.4 µM (inactive) with BT-549; 19.1 µM (inactive) with K562; 25.7 µM (inactive) in the experiment on CAKI-1; 26.4 µM (inactive) in the experiment with SK-MEL-28. The GI50 in the experiment with SF-268 is 6.07 µM (inactive); in the experiment on SNB-75 it was 6.82 µM (inactive); in the experiment on NCI-H23, 20.7 µM (inactive); in the experiment on 786-0, 6.32 µM (inactive); with NCI-H522 it was 9.86 µM (inactive); in the experiment on HCT-116, 3.33 µM (inactive). The GI50 in the experiment with OVCAR-4 is 11.3 µM (inactive); in the experiment on HL-60, > 22.5 µM (inactive); in the experiment on OVCAR-8, 5.22 µM (inactive); with OVCAR-5, 17.4 µM (inactive); with SF-539, 8.91 µM (inactive); with MDA-MB-435, 21.6 µM (inactive). The GI50 in the experiment with A498 is 36.1 µM (inactive).

With `CCCN(CCC)C(=S)N/N=C/c1cccc(C)n1`, the GI50 with MOLT-4 is < 0.01 µM (active); in the experiment on MCF7, < 0.01 µM (active); in the experiment on CCRF-CEM, < 0.01 µM (active); with K562, < 0.01 µM (active); with CAKI-1, 0.382 µM (active); in the experiment with SK-MEL-28, 0.778 µM (active). The GI50 with SF-268 was 0.023 µM (active); in the experiment with SNB-75, 0.261 µM (active); in the experiment on NCI-H23 it was 0.275 µM (active); with 786-0 it was 0.0237 µM (active); with NCI-H522, 0.0194 µM (active); in the experiment with HCT-116, < 0.01 µM (active). Moreover, the GI50 with OVCAR-4 is < 0.01 µM (active); with HL-60 it was < 0.01 µM (active); with OVCAR-8 it was 0.0217 µM (active); with OVCAR-5 it was < 0.01 µM (active); with SF-539 it was 0.214 µM (active); with MDA-MB-435, 0.521 µM (active). The GI50 in the experiment with A498 was 0.233 µM (active).
